Assay results published in ChEMBL document CHEMBL1201862, “PubChem BioAssay data set” (2004).
Active and inactive are the calls of the source.

Experiments:
[1] = Trypanosoma cruzi growth suppression in host cells – NIH3T3 host cells, beta-gal luminescence, confirmation (AID 2044); assay type: functional, cell-based;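 further: intracellular parasites grown in NIH/3T3 mouse fibroblasts as host cells; luminescent beta-galactosidase reporter signal from transgenic T. cruzi replicating inside host cells; inhibitors lower the luminescence signal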
[2] = NIH3T3 cell viability loss – ATP luminescence, mouse fibroblasts, counter-screen, dose response (AID 2010); assay type: functional, cell-based;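 further: cells exposed to compound for about 90 hours before reading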
[3] = molecular target: Cysteine protease ATG4B (Homo sapiens, UniProt Q9Y4P1); assay type: functional;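 further: Fluorescence-based dose-response confirmation assay measuring inhibition of ATG4B activity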
[4] = molecular target: Phospholipase A2 (Homo sapiens, UniProt P04054); assay type: functional;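 further: confirmatory dose-response counterscreen on phospholipase A2, testing hits that came from an ultra-high-throughput screen for ATG4B inhibitors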
[5] = molecular target: Glycogen synthase kinase-3 alpha (Homo sapiens, UniProt P49840); assay: Inhibition of Human GSK-3 alpha Activity Measured in Biochemical System Using Microfluidics - 2063-06_Inhibitor_Dose_DryPowder_Activity_Set2. [Related pubchem assays (depositor defined):AID2709]
[6] = molecular target: Glycogen synthase kinase-3 beta (Homo sapiens, UniProt P49841); assay: Inhibition of Human GSK-3 beta Activity Measured in Biochemical System Using Microfluidics - 2063-05_Inhibitor_Dose_DryPowder_Activity_Set2. [Related pubchem assays (depositor defined):AID2709]
Glycogen synthase kinase-3 beta, sequence (P49841 whole entry): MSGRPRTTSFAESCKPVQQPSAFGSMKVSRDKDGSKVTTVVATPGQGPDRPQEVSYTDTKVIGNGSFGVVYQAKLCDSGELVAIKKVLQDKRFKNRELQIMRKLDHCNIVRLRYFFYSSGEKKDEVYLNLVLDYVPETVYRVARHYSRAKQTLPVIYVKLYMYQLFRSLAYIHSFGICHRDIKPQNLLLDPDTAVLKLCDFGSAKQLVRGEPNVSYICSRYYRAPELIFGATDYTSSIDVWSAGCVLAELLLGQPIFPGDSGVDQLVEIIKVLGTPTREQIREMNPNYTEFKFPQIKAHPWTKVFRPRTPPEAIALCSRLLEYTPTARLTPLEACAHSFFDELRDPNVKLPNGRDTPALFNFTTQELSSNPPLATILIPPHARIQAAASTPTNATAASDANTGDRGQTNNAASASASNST

Cysteine protease ATG4B, sequence (Q9Y4P1 whole entry): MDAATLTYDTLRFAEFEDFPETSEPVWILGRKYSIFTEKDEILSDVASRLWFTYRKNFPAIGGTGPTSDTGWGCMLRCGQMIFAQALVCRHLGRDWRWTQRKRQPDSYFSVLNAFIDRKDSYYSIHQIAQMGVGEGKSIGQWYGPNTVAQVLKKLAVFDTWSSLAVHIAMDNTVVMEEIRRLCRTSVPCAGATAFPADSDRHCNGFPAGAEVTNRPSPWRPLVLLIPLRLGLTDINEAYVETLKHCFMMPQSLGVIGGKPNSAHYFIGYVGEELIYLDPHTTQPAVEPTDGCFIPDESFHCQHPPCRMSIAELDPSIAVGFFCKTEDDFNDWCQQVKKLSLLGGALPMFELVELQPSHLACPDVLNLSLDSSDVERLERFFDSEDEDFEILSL
Phospholipase A2, sequence (P04054 whole entry): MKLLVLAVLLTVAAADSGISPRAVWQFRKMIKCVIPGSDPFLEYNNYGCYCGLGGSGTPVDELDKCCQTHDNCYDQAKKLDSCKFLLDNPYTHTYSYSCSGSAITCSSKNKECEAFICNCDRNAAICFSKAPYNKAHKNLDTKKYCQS
Glycogen synthase kinase-3 alpha, sequence (P49840 whole entry): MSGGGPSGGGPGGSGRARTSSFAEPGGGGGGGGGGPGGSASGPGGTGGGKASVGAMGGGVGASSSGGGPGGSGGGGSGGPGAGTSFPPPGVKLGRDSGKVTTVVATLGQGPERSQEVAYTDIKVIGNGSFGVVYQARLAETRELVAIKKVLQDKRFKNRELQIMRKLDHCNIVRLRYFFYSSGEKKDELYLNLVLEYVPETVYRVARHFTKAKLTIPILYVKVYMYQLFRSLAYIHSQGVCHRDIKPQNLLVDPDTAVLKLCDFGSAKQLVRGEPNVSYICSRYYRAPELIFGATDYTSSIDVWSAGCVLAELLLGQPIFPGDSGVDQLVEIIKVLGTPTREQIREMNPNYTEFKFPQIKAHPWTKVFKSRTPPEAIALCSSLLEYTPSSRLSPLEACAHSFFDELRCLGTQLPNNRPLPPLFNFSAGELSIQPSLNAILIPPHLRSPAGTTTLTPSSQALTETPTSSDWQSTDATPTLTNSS

AC50 [5] | AC50 [6] | SMILES | EC50 [1] | EC50 [2] | IC50 [3] | IC50 [4]
 |  | CC(C)C[C@H](NC(=O)OC(C)(C)C)C(=O)N/N=C/C1=Cc2ccccc2OC1C (stereo partly specified) | 3.34 µM (active) | > 60 µM (not active) | 37.1 µM (inactive) | 15.4 µM (active)
24.9 µM (active) | 6.28 µM (active) | O=C(Nc1ccsc1C(=O)NC1CCCCC1)c1ccc(F)cc1 |  |  |  | 
